How the values were obtained:
[1] = intravenous formulation in neonates; cited from earlier work
[2] = Excipient-free formulation: reconstitution with water for injection and dilution in infusion bags; format: physicochemical
Procedure: 0.3164 g of letermovir sodium trihydrate salt was directly weighed into a washed, sterilized and dried 20R glass vial. […] Six vials were prepared accordingly. The vials were stoppered and crimp capped.
14 ml of water for injection were added to each 20R vial containing 280 mg of Letermovir free base resulting in concentration of 20 mg/ml. Water for injection was added after removal of the flip-off disk from the vial by using a 20-ml disposable syringe plus a 20G needle of 40 mm length.
The content of the vial was carefully homogenized by gentle manual rotation. In parallel, 2 empty infusion bags were filled with 288 ml of each parenteral admixture diluents (Ringer's lactate, 0.9% saline solution and 5% dextrose solution, respectively) by using a 50-ml syringe and a Mini-Spike. 12 ml of the content of the vial was withdrawn by using a 20-ml disposable syringe plus a 20G needle of 40 mm length. The total volume of 12 ml was directly injected into the diluent containing infusion bag. After the injection, the content of the bag was carefully homogenized by gentle manual rotation. Two independent preparations of each diluent were used, i.e., in total 6 infusion bags were prepared. Following, the prepared infusion bags were put on storage at room temperature (protected from light) and another sample was analyzed after 24 hours (T24 h).

| pH ([2]; other two diluents (0.9% saline solution, 5% dextrose solution)) | pH ([2]; solution reconstituted with Ringer's lactate, no pH adjustment) | SMILES | PDE (permissible daily exposure) [1] [mg/day] | precipitation based on visual inspection ([2]; over 24 hours at room temperature, Ringer's lactate, 0.9% saline, 5% dextrose) |
| --- | --- | --- | --- | --- |
| – | – | OC[C@H]1O[C@H](O[C@H]2O[C@H](CO)[C@@H](O)[C@H](O)[C@H]2O)[C@H](O)[C@@H](O)[C@@H]1O [Trehalose] | 25.8 | – |
| – | – | OC[C@H]1O[C@@H](O[C@H]2[C@H](O)[C@@H](O)C(O)O[C@@H]2CO)[C@H](O)[C@@H](O)[C@H]1O (stereo partly drawn) [Lactose] | 5.7 | – |
| – | – | OC[C@@H](O)[C@@H](O)[C@H](O)[C@H](O)CO [Mannitol] | 75 | – |
| 8.0 | 7.8 | COc1cccc(N2CCN(C3=Nc4c(F)cccc4[C@H](CC(=O)[O-])N3c3cc(C(F)(F)F)ccc3OC)CC2)c1.[Na+] [letermovir sodium trihydrate salt, Sodium 2-[(4S)-8-fluoro-2-[4-(3-methoxyphenyl)piperazin-1-yl]-3-[2-methoxy-5-(trifluoromethyl)phenyl]-4H-quinazolin-4-yl]acetate] | – | None of the reconstituted formulations precipitated |

From patent publication US20230095980A1, “Sodium 2-[(4S)-8-fluoro-2-[4-(3-methoxyphenyl)piperazin-1-yl]-3-[2-methoxy-5-(trifluoromethyl)phenyl]-4H-quinazolin-4-yl]acetate and pharmaceutical compositions thereof” (AIC246 AG & Co. KG, priority 2020, published 2023)
